According to patent US10150771B2, “Triazolopyrazinones as PDE1 inhibitors” (H. Lundbeck A/S, priority 2014, dated 2018):

Tests used:
Type in all cases: biochemical
PDE1C = PDE1C (Homo sapiens, UniProt Q14123); assay: PDE1 inhibition assay (SPA), PDE1C; conditions: concentration required to reach 50% inhibition of the enzyme; 15 nM tritium labelled cAMP; read-out: PDE1C inhibition (nM or %): IC50
Procedure, shortened: (§1)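 A scintillation proximity assay used enzyme sufficient for 20–25% substrate conversion and 15 nM tritiated cAMP in 50 mM HEPES pH 7.6, 10 mM MgCl2, 0.02% Tween20 and 0.1 mg/ml BSA, run for 1 h at room temperature. Reactions were stopped with yttrium silicate SPA beads. IC50 values were derived from activity relative to uninhibited control.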

PDE1B = PDE1B (Homo sapiens, UniProt Q01064); assay: PDE1 inhibition assay (SPA), PDE1B; conditions: concentration required to reach 50% inhibition of the enzyme; 15 nM tritium labelled cAMP; read-out: PDE1B inhibition (nM or %): IC50
Sequence of PDE1B (Q01064 whole entry): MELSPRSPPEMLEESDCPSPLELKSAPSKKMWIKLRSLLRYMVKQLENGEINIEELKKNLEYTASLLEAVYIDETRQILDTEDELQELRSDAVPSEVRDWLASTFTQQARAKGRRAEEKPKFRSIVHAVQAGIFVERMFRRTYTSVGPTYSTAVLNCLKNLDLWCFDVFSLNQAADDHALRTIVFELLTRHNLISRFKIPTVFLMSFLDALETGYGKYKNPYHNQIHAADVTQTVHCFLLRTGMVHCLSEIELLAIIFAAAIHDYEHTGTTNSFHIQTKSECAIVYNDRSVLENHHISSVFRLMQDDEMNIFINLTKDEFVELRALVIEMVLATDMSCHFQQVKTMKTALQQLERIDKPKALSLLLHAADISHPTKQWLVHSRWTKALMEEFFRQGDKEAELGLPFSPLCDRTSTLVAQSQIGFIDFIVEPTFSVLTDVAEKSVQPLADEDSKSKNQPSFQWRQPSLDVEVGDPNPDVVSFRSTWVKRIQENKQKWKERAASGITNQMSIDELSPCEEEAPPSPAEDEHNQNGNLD
Procedure, shortened: as §1

PDE1A = PDE1A (Homo sapiens, UniProt P54750); assay: PDE1 inhibition assay (SPA), PDE1A; conditions: concentration required to reach 50% inhibition of the enzyme; 15 nM tritium labelled cAMP; read-out: PDE1A inhibition (nM or %): IC50
Sequence of PDE1A (P54750 whole entry): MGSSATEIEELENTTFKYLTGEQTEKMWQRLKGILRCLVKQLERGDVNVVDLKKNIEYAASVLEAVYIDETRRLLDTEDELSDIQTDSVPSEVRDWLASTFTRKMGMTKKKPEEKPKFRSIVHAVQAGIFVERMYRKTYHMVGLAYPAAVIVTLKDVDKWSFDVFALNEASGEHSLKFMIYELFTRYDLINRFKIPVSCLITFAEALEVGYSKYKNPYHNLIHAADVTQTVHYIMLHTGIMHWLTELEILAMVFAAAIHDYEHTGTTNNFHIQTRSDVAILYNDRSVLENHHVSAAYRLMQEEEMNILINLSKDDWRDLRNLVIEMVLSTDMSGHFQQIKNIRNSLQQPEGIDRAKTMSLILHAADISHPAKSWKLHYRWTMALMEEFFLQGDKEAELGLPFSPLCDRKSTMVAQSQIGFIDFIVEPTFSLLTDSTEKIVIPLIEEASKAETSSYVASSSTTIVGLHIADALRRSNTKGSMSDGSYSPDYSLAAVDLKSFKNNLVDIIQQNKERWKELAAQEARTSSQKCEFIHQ
Procedure, shortened: as §1

Sequence of PDE1C (Q14123 whole entry): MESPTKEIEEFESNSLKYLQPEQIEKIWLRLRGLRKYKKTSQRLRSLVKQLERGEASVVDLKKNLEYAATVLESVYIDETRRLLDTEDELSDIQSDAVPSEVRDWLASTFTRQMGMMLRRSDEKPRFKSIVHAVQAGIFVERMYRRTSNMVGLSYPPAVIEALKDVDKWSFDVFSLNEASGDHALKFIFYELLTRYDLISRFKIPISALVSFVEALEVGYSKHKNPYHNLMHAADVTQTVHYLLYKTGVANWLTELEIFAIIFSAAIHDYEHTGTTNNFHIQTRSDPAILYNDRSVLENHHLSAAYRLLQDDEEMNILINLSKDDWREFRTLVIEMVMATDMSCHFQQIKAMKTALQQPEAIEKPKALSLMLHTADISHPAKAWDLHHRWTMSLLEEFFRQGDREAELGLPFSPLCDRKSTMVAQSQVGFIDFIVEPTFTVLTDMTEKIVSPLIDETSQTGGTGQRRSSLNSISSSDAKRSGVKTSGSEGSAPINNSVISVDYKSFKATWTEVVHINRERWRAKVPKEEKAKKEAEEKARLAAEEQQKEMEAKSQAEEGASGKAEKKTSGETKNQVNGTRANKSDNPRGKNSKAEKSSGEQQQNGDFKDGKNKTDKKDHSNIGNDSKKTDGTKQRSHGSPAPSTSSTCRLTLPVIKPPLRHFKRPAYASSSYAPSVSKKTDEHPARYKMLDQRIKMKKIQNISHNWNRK

| IC50 (PDE1C) | IC50 (PDE1B) | IC50 (PDE1A) | Structure (SMILES) |
| --- | --- | --- | --- |
| 260 nM | 950 nM | 1300 nM | CCCc1nnc2c(=O)n(CC3(C)CCCCC3)ccn12 [7-((1-methylcyclohexyl)methyl)-3-propyl-[1,2,4]triazolo[4,3-a]pyrazin-8(7H)-one] |
| 780 nM | 930 nM | 1000 nM | CCCc1nnc2c(=O)n(Cc3ccc(C)cc3)ccn12 [7-(4-Methylbenzyl)-3-propyl-[1,2,4]triazolo[4,3-a]pyrazin-8(7H)-one] |
| 140 nM | 680 nM | 730 nM | O=c1c2nnc(C3CCOCC3)n2ccn1Cc1cccc(F)c1 [7-(3-Fluorobenzyl)-3-(tetrahydro-2H-pyran-4-yl)-[1,2,4]triazolo[4,3-a]pyrazin-8(7H)-one] |
